Source: patent US20130158031A1 (SU ZHOU JING HONG BIOTECH CO., LTD., priority 2011, published 2013)

These compounds were tested against T1, human PDE10A (Homo sapiens, UniProt Q9Y233) (assay: PDE10A inhibition assay (IMAP fluorescence polarization)). Conditions: hPDE10A enzyme from transfected HEK293 cell lysate, fluorescein-labeled cAMP/cGMP.
T1 construct: Full-length human PDE10A cDNA is amplified using PCR; made in house; host or cells: HEK293 cells, transiently transfected with Lipofectamine 2000; supernatant of the sonicated lysate after 10,000 g
Format: biochemical
Description: Full-length human PDE10A cDNA is amplified using PCR and cloned into pcDNA3.0 vector (Invitrogen). After verified by DNA sequencing, the plasmid is transfected into HEK293 cell using the Lipofectamine 2000 reagent (Invitrogen). Cells are subsequently harvested and sonicated in cell lysis buffer. After centrifuged at 10,000 g for 20 minutes, supernatant containing cytosolic hPDE10A enzyme is collected and stored at −80° C. PDE10A inhibition assay is performed using the IMAP fluorescence polarization assay (Molecular Devices) according to the manufacturer's protocols. A fixed amount of the hPDE10A enzyme is pretreated with the test compounds, following the addition of fluorescein-labeled cAMP/cGMP. After 1 hour incubation, the IMAP binding reagent is added and incubated for another hour. The fluorescence polarization is then quantified with a fluorescence polarization reader Envision from Perkin Elmer. IC50 values are calculated using the Prism program (GraphPad Software).

T1 sequence (Q9Y233 1-779 isoform Q9Y233-1): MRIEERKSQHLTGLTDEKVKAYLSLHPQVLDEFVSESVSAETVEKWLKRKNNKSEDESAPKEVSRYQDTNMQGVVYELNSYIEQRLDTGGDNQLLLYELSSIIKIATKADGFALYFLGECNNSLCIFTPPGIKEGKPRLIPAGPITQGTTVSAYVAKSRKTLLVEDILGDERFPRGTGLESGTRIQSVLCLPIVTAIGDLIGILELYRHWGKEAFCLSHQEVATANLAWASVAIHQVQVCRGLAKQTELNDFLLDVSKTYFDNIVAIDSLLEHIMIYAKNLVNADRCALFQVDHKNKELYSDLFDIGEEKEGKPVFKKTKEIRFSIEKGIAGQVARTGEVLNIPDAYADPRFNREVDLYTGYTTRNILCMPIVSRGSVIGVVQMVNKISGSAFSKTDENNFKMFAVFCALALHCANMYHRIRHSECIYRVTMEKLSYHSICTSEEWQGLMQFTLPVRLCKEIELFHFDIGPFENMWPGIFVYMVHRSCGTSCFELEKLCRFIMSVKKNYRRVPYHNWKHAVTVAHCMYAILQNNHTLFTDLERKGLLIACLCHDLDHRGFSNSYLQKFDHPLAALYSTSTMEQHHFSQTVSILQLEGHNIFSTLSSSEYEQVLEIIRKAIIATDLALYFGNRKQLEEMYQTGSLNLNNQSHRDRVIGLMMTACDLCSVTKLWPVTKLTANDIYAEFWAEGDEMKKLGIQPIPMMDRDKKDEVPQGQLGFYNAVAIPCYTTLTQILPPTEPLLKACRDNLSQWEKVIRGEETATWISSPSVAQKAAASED

Compound	IC50 [µM]
Cn1cc(-c2ccncn2)c(-c2ccc(C#Cc3ccc4ccccc4n3)cc2)n1 [Example 26]	0.01 to 0.1
C(#Cc1ccc2ccccc2n1)c1ccc(-c2ncncc2-c2ccncc2)cc1 [Example 20, 2-((4-(5-(pyridin-4-yl)pyrimidin-4-yl)phenyl)ethynyl)quinoline]	0.01 to 0.1
Cn1cc(-c2ccncc2)c(-c2ccc(C#Cc3ccc4ccccc4n3)cc2)n1 [Example 1, 2-((4-(1-methyl-4-(pyridin-4-yl)-1H-pyrazol-3-yl)phenyl)ethynyl)quinoline]	≤ 0.01
C(#Cc1ccc2ccccc2n1)c1ccc(-n2cnnc2-c2ccncc2)cc1 [Example 23, 2-((4-(3-(pyridin-4-yl)-4H-1,2,4-triazol-4-yl)phenyl)ethynyl)quinoline]	0.01 to 0.1
CCc1cccc(C#Cc2ccc(-c3nn(C)cc3-c3ccncc3)cc2)n1 [Example 4, 2-Ethyl-6-((4-(1-methyl-4-(pyridin-4-yl)-1H-pyrazol-3-yl)phenyl)ethynyl)pyridine]	≤ 0.01
Cn1cc(-c2ccncc2)c(-c2ccc(C#Cc3ccc4ccccc4n3)nc2)n1 [Example 24, 2-(5-(1-methyl-4-pyridin-4-yl-1H-pyrazol-3-yl)pyridin-2-ylethynyl)quinoline]	≤ 0.01
Cn1cc(-c2ccncc2)c(-c2ccc(C#Cc3ncc4ccccc4n3)cc2)n1 [Example 2, 2-((4-(1-methyl-4-(pyridin-4-yl)-1H-pyrazol-3-yl)phenyl)ethynyl)quinazoline]	≤ 0.01
C(#Cc1ccc2ccccc2n1)c1ccc(-n2nccc2-c2ccncc2)cc1 [Example 22, 2-((4-(5-(pyridin-4-yl)-1H-pyrazol-1-yl)phenyl)ethynyl)quinoline]	≤ 0.01
CCn1cc(-c2ccncc2)c(-c2ccc(C#Cc3ccc4ccccc4n3)nc2)n1 [Example 31, 2-((5-(1-ethyl-4-(pyridin-4-yl)-1H-pyrazol-3-yl)pyridin-2-yl)ethynyl)quinoline]	≤ 0.01
Cn1cc(-c2ccc(O)cc2)c(-c2ccc(C#Cc3ccc4ccccc4n3)cc2)n1 [Example 34, 4-(1-methyl-3-(4-(quinolin-2-ylethynyl)phenyl)-1H-pyrazol-4-yl)phenol]	0.01 to 0.1
Cn1cc(-c2ccncc2)c(-c2ccc(C#Cc3ccc4ccccc4n3)cn2)n1 [Example 27, 2-((6-(1-methyl-4-(pyridin-4-yl)-1H-pyrazol-3-yl)pyridin-3-yl)ethynyl)quinoline]	≤ 0.01
Cc1cccc(C#Cc2ccc(-c3nn(C)cc3-c3ccncc3)cc2)n1 [Example 3]	≤ 0.01
Cn1cc(-c2ccncc2)c(-c2ccc(C#Cc3ccc4ccccc4n3)cc2F)n1 [Example 25, 2-((3-fluoro-4-(1-methyl-4-(pyridin-4-yl)-1H-pyrazol-3-yl)phenyl)ethynyl)quinoline]	≤ 0.01
Cn1ncc(-c2ccc(C#Cc3ccc4ccccc4n3)cc2)c1-c1ccncc1 [Example 37, 2-((4-(1-methyl-5-(pyridin-4-yl)-1H-pyrazol-4-yl)phenyl)ethynyl)quinoline]	0.01 to 0.1
FCCn1cc(-c2ccncc2)c(-c2ccc(C#Cc3ccc4ccccc4n3)nc2)n1 [Example 32, 2-((5-(1-(2-fluoroethyl)-4-(pyridin-4-yl)-1H-pyrazol-3-yl)pyridin-2-yl)ethynyl)quinoline]	≤ 0.01
C(#Cc1ccc2ccccc2n1)c1ccc(-n2ncnc2-c2ccncc2)cc1 [Example 21, 2-((4-(5-(pyridin-4-yl)-1H-1,2,4-triazol-1-yl)phenyl)ethynyl)quinoline]	0.01 to 0.1
Cn1cc(-c2ccc(C#Cc3ccc4ccccc4n3)cc2)c(-c2ccncc2)n1 [Example 36, 2-((4-(1-methyl-3-(pyridin-4-yl)-1H-pyrazol-4-yl)phenyl)ethynyl)quinoline]	≤ 0.01
CN(C)CCn1cc(-c2ccncc2)c(-c2ccc(C#Cc3ccc4ccccc4n3)cc2)n1 [Example 17, N,N-dimethyl-2-(4-(pyridine-4-yl)-3-(4-(quinolin-2-ylethynyl)phenyl)-1H-pyrazol-1-yl)ethanamine]	≤ 0.01

Compound	IC50 [µM]
FC(F)(F)Cn1cc(-c2ccncc2)c(-c2ccc(C#Cc3ccc4ccccc4n3)cc2)n1 [Example 18]	≤ 0.01
COCCn1cc(-c2ccncc2)c(-c2ccc(C#Cc3ccc4ccccc4n3)cc2)n1 [Example 16, 2-((4-(1-(2-methoxyethyl)-4-(pyridin-4-yl)-1H-pyrazol-3-yl)phenyl)ethynyl)quinoline]	≤ 0.01
OCCn1cc(-c2ccncc2)c(-c2ccc(C#Cc3ccc4ccccc4n3)cc2)n1 [Example 13, 2-(4-(pyridin-4-yl)-3-(4-(quinolin-2-ylethynyl)phenyl)-1H-pyrazol-1-yl)ethanol]	≤ 0.01
C(#Cc1ccc2ccccc2n1)c1ccc(-c2n[nH]cc2-c2ccncc2)cc1 [Example 11, 2-((4-(4-(pyridin-4-yl)-1H-pyrazol-3-yl)phenyl)ethynyl)quinoline]	≤ 0.01
FCCn1cc(-c2ccncc2)c(-c2ccc(C#Cc3ccc4ccccc4n3)cc2)n1 [Example 19, 2-((4-(1-(2-fluoroethyl)-4-(pyridin-4-yl)-1H-pyrazol-3-yl)phenyl)ethynyl)quinoline]	≤ 0.01
Cn1cc(-c2ccncc2)c(-c2ccc(C#Cc3cccc(C(F)(F)F)n3)cc2)n1 [Example 8, 2-((4-(1-methyl-4-(pyridin-4-yl)-1H-pyrazol-3-yl)phenyl)ethynyl)-6-(trifluoromethyl)pyridine]	0.1 to 1
Cn1cc(-c2ccncc2)c(-c2ccc(C#Cc3ccc(C4CC4)cn3)cc2)n1 [Example 7, 5-cyclopropyl-2-((4-(1-methyl-4-(pyridin-4-yl)-1H-pyrazol-3-yl)phenyl)ethynyl)pyridine]	≤ 0.01
CCn1cc(-c2ccncc2)c(-c2ccc(C#Cc3ccc4ccccc4n3)cc2)n1 [Example 15, 2-((4-(1-ethyl-4-(pyridin-4-yl)-1H-pyrazol-3-yl)phenyl)ethynyl)quinoline]	≤ 0.01
COc1ccc(-c2cn(C)nc2-c2ccc(C#Cc3ccc4ccccc4n3)cc2)cc1 [Example 33, 2-((4-(4-(4-methoxyphenyl)-1-methyl-1H-pyrazol-3-yl)phenyl)ethynyl)quinoline]	0.01 to 0.1
CNCCn1cc(-c2ccncc2)c(-c2ccc(C#Cc3ccc4ccccc4n3)cc2)n1 [Example 14, N-methyl-2-(4-(pyridin-4-yl)-3-(4-(quinolin-2-ylethynyl)phenyl)-1H-pyrazol-1-yl)ethanamine]	≤ 0.01
C(#Cc1ccc2ccccc2n1)c1ccc(-c2ccnn2-c2ccncc2)cc1 [Example 28, 2-((4-(1-(pyridin-4-yl)-1H-pyrazol-5-yl)phenyl)ethynyl)quinoline]	≤ 0.01
Cn1cc(-c2ccncc2)c(-c2ccc(C#Cc3cccc(C4CC4)n3)cc2)n1 [Example 5, 2-cyclopropyl-6-((4-(1-methyl-4-(pyridin-4-yl)-1H-pyrazol-3-yl)phenyl)ethynyl)pyridine]	0.01 to 0.1
C(#Cc1ccc2ccccc2n1)c1ccc(-c2c[nH]nc2-c2ccncc2)cc1 [Example 35, 2-((4-(3-(pyridin-4-yl)-1H-pyrazol-4-yl)phenyl)ethynyl)quinoline]	≤ 0.01
Cc1ccc(C#Cc2ccc(-c3nn(C)cc3-c3ccncc3)cc2)nc1 [Example 6]	≤ 0.01
Cn1cc(-c2ccncc2)c(-c2ccc(C#Cc3ccc(C(F)(F)F)cn3)cc2)n1 [Example 9, 2-((4-(1-methyl-4-(pyridin-4-yl)-1H-pyrazol-3-yl)phenyl)ethynyl)-5-(trifluoromethyl)pyridine]	0.1 to 1
COc1cccc(C#Cc2ccc(-c3nn(C)cc3-c3ccncc3)cc2)n1 [Example 10, 2-methoxy-6-((4-(1-methyl-4-(pyridin-4-yl)-1H-pyrazol-3-yl)phenyl)ethynyl)pyridine]	≤ 0.01
C(#Cc1ccc2ccccc2n1)c1ccc(-c2nn(C3CC3)cc2-c2ccncc2)cc1 [Example 12, 2-((4-(1-cyclopropyl-4-(pyridin-4-yl)-1H-pyrazol-3-yl)phenyl)ethynyl)quinoline]	≤ 0.01
